The record followed here is patent US4200631A, “Treating mammalian subject sensitive to indomethacin ulcerogenisis” (priority 1978, dated 1980).

The conditions of this data set: rat, in vivo, po.

Regarding `COc1ccc2c(c1)c(CC(=O)O)c(C)n2C(=O)c1ccc(Cl)cc1` [Indomethacin], the “Therapeutical index LD50/ED50 (B)” value turned out to be 8.9.
